Laboratory results from patent US20110118348A1, “Methods of stabilizing latanoprost in an aqueous solution” (SANTEN PHARMACEUTICAL CO., LTD., priority 2002, published 2011).
Marks after values point to notes of the source that are not given here.

Assay: Stability Test of Latanoprost 1: residual ratio of latanoprost in phosphate buffer at each pH after storage at 60° C. or 70° C. (HPLC)
Type: physicochemical
Conditions: for Residual ratio (%): pH 8.0, phosphate buffer
Description: 1) Latanoprost (0.0025 g) was weighed out in a 50 ml-beaker, a phosphate buffer (50 ml) having each pH (4.0, 5.0, 5.5, 6.0, 6.25, 6.5, 6.7 or 8.0) prepared in advance was added to the beaker, and the mixture was stirred with a magnetic stirrer. The mixture was stirred while warming it in a water bath at about 80° C. for about 30 minutes to dissolve latanoprost. 2) It was confirmed that latanoprost was dissolved, and pH was confirmed. 3) A glass ampoule was charged with each prepared solution (2.5 ml) and sealed by melting it. 4) It was stored at 60° C. or 70° C. 5) Sampling was carried out with time until 28th day after starting storage, latanoprost contents were measured by high performance liquid chromatography, and residual ratios were calculated. Samples having residual ratios of 95% or higher after storage at 60° C. for 28 days and residual ratios of 90% or higher after storage at 70° C. for 28 days were judged to be stable.

## CC(C)OC(=O)CCC/C=C\C[C@@H]1[C@@H](CC[C@@H](O)CCc2ccccc2)[C@H](O)C[C@@H]1O [latanoprost, isopropyl (Z)-7[(1R,2R,3R,5S)3,5-dihydroxy-2-[(3R)-3-hydroxy-5-phenylpentyl]cyclopentyl]-5-heptanoate]
60° C., pH 4.0, phosphate buffer
  Residual ratio (%) after storage for 28 days: 87.4%
60° C., pH 5.0, phosphate buffer
  Residual ratio (%) after storage for 28 days: 98.9%
60° C., pH 5.5, phosphate buffer
  Residual ratio (%) after storage for 28 days: 98.0%
60° C., pH 6.0, phosphate buffer
  Residual ratio (%) after storage for 28 days: 98.9%
60° C., pH 6.25, phosphate buffer
  Residual ratio (%) after storage for 28 days: 95.0%
60° C., pH 6.5, phosphate buffer
  Residual ratio (%) after storage for 28 days: 92.4%
60° C., pH 6.7, phosphate buffer
  Residual ratio (%) after storage for 28 days: 93.4%
60° C., value on 21st day
  Residual ratio (%): 30.0* %
70° C., pH 4.0, phosphate buffer
  Residual ratio (%) after storage for 28 days: 76.7%
70° C., pH 5.0, phosphate buffer
  Residual ratio (%) after storage for 28 days: 94.9%
70° C., pH 5.5, phosphate buffer
  Residual ratio (%) after storage for 28 days: 94.6%
70° C., pH 6.0, phosphate buffer
  Residual ratio (%) after storage for 28 days: 93.1%
70° C., pH 6.25, phosphate buffer
  Residual ratio (%) after storage for 28 days: 92.0%
70° C., pH 6.5, phosphate buffer
  Residual ratio (%) after storage for 28 days: 82.7%
70° C., value on 12th day
  Residual ratio (%): 14.1** %
